We go through six compounds from patent US4997931A, “Epipodophyllotoxin glycosides” (Bristol-Myers Squibb Company, priority 1990, dated 1991).

One experiment deals with murine P388 leukemia. The experiment in a line: In vivo antitumor activity in the lymphocytic leukemia P388 system. To be noted: i.p., once on day 1 (Q1D×1), over 125% significant. On the set-up: species or system mouse (Female CDF1 mice). Here is the method: Antitumor activity of representative compounds of the present invention was tested in the lymphocytic leukemia P388 system. Female CDF1 mice were inoculated intraperitoneally with 1.0×10^6 of leukemia cells per mouse (day 0) and test materials were intraperitoneally administered to mice once on day 1 (Q1D×1). […] The median survival time (MST) of each test group was recorded, and antitumor activity was expressed by means of T/C% values calculated by the following equation:
T/C%=(MST treated.div.MST control)×100
The T/C% values of over 125% are considered significant antitumor activity.
(§1) For the in vivo expermient, only the maximum T/C% and the dose giving the maximum value are shown.

The subject of experiment [1] is Murine melanoma B16-F10 cells. Nature of the experiment: In vitro cytotoxicity against B16-F10 cells (neutral red staining, 72 hours). The experiment is classed as cell-based. To be noted: Mus musculus, 72 hours incubation, read-out: Cytotoxicity (IC50, μg/ml). On the procedure:
Murine melanoma B16-F10 cells were grown and maintained at 37° C. under a humidified atmosphere in a 5% CO2 incubator in Eagle's MEM medium (Nissui) containing kanamycin (60 μg/ml), and supplemented with heat inactivated fetal calf serum (10%) and non-essential amino acids (0.6%). Exponentially growing B16-F10 cells were harvested, counted and suspended in the culture medium at a concentration of 2.0×10^4 cells/ml. Twenty-four hours after planting cell suspension (180 μl) into wells of a 96-well microtiter plate, test materials (20 μl) were added to the wells and the plates were incubated for 72 hours. The cytotoxic activity against B16-F10 cells was colorimetrically determined at 540 nm after staining viable cells with neutral red solution.
as §1

Setting [2] is: 60 mg/kg/Day (dose giving maximum T/C%).
The mark [3] stands for this setting: 120 mg/kg/Day (dose giving maximum T/C%).

In brackets after ≈: the same amount, converted by molar mass.

On to `COc1cc([C@@H]2c3cc4c(cc3[C@@H](O[C@@H]3O[C@@H]5COC(C)O[C@H]5[C@H](O)[C@@H]3O)[C@H]3COC(=O)[C@H]23)OCO4)cc(OC)c1O` (stereo partly drawn) [Example 3, 4'-Demethyl-4-O-(4.6-O-ethylidene-β-D-mannopyranosyl)epipodophyllotoxin], for which the “Anti-P388 T/C % (maximum; MST treated/MST control ×100)” value in the experiment with murine P388 leukemia (30 mg/kg/Day (dose giving maximum T/C%)) was 186%. For the same compound, the IC50 in experiment [1] is 0.12 µg/mL (≈ 0.204 µM).

Regarding `COc1cc([C@@H]2c3cc4c(cc3[C@@H](O[C@@H]3O[C@H]([C@H]5COC(C)O5)[C@@H](O)[C@H]3O)[C@H]3COC(=O)[C@H]23)OCO4)cc(OC)c1O` (single isomer, unassigned) [Example 2 (epimer II), 4'-demethyl-4-O-(5,6-O-ethylidene-β-D-allofuranosyl)epipodophyllotoxin], in the experiment with murine P388 leukemia (setting [2]), the “Anti-P388 T/C % (maximum; MST treated/MST control ×100)” value is listed as 140%.

Take `COc1cc([C@@H]2c3cc4c(cc3[C@@H](O[C@@H]3O[C@H]([C@H]5COC(C)O5)[C@@H](O)[C@H]3O)[C@H]3COC(=O)[C@H]23)OCO4)cc(OC)c1O` (single isomer, unassigned) [Example 2 (epimer I), 4'-demethyl-4-O-(5,6-O-ethylidene-β-D-allofuranosyl)epipodophyllotoxin]: the “Anti-P388 T/C % (maximum; MST treated/MST control ×100)” value in the experiment on murine P388 leukemia (setting [3]) worked out at 150%. Moreover, the IC50 in experiment [1] was over 100 µg/mL.

Take `COc1cc([C@@H]2c3cc4c(cc3[C@@H](O[C@@H]3O[C@@H]5CO[C@@H](C)O[C@H]5[C@H](O)[C@H]3O)[C@H]3COC(=O)[C@H]23)OCO4)cc(OC)c1O` [Etoposide, reference compound]: the “Anti-P388 T/C % (maximum; MST treated/MST control ×100)” value with murine P388 leukemia (setting [3]) is listed as 288%. The IC50 in experiment [1] came to 0.21 µg/mL (≈ 0.357 µM).

Regarding `COc1cc([C@@H]2c3cc4c(cc3[C@@H](O[C@@H]3O[C@@H]5COC(C)O[C@H]5[C@@H](O)[C@H]3O)[C@H]3COC(=O)[C@H]23)OCO4)cc(OC)c1O` (stereo partly drawn) [Example 1, 4'-Demethyl-4-O-(4,6-O-ethylidene-β-D-allopyranosyl)epidpodophyllotoxin], in the experiment with murine P388 leukemia (setting [2]), the “Anti-P388 T/C % (maximum; MST treated/MST control ×100)” value worked out at 280%. For the same compound, in experiment [1], the IC50 was determined as 2.1 µg/mL (≈ 3.57 µM).

For `COc1cc([C@@H]2c3cc4c(cc3[C@@H](O[C@H]3O[C@@H]5COC(C)O[C@H]5[C@H](O)[C@@H]3O)[C@H]3COC(=O)[C@H]23)OCO4)cc(OC)c1O` (stereo partly drawn) [Example 4, 4'-demethyl-4-O-(4,6-O-ethylidene-α-D-mannopyranosyl)epipodophyllotoxin], the “Anti-P388 T/C % (maximum; MST treated/MST control ×100)” value in the experiment with murine P388 leukemia (10 mg/kg/Day (dose giving maximum T/C%)) is reported as 124%. In experiment [1], the IC50 was determined as 19 µg/mL (≈ 32.3 µM).
